In patent US11007148B2, “Amphiphilic block copolymers for delivery of active agents” (priority 2014, dated 2021):
Where a name gives a salt, the structure may show the parent alone.

Columns and labels:
[1] = free drug; cited from earlier work
[2] = mouse, in vivo
Source text: In this example the kinetic properties of loaded micelles with PTX are studied in vivo using the fluorophore labels Cy7 and Cy5.5. Cy7 was covalently linked to the polymer chain and reports about the fate of the injected micelles; Cy5.5 was physically loaded in the core of the micelles and used as a modal drug.
CD-1 nude female mice (n=5) were fed with chlorophyll-free food pellets and water ad libitum, and caged in ventilated cages and clinically controlled rooms and atmosphere.

Row | half-life of the Cy5.5 label relative to the micelles [2] | Compound | Log P [1]
1 |  | COc1nc2ccc(Br)cc2cc1[C@@H](c1ccccc1)[C@@](O)(CCN(C)C)c1cccc2ccccc12 [Bedaquiline] | 7.59
2 |  | C[C@H](NC(=O)Cc1cc(F)cc(F)c1)C(=O)N[C@H](C(=O)OC(C)(C)C)c1ccccc1 [DAPT] | 3.54
3 |  | COc1cccc2c1C(=O)c1c(O)c3c(c(O)c1C2=O)C[C@@](O)(C(=O)CO)C[C@@H]3O[C@H]1C[C@H](N)[C@H](O)[C@H](C)O1 [DOX•HCl, doxorubicin hydrochloride] | 2.82
4 |  | CC(=O)O[C@H]1C(=O)[C@@]2(C)[C@H]([C@H](OC(=O)c3ccccc3)[C@]3(O)C[C@H](OC(=O)[C@H](O)[C@@H](NC(=O)c4ccccc4)c4ccccc4)C(C)=C1C3(C)C)[C@]1(OC(C)=O)CO[C@@H]1C[C@@H]2O [Paclitaxel] | 4.7
5 | shorter half-life | Cy5.5 | 
